The numbers were not newly measured in US20100221361A1, “STABLE OXIDIZING BROMINE COMPOSITION, METHOD OF MANUFACTURE AND USE THEREOF FOR BIOFOULING CONTROL” (priority 2009, published 2010), which cites them from elsewhere.

The conditions of the data set: in water.

On to `BrBr` [elemental liquid bromine, bromine], for which the solubility is given as less than 4 g/ 100 g water.
